Laboratory results: patent US20250304537A1 (Repare Therapeutics Inc., priority 2022, published 2025)
Read-outs that look alike come from different tables or passages of the source.

Test system: PKMYT1 (CDK1 pThr14) in FUOV1 cells
Assay: PKMYT1 cell-based activity assay, CDK1 pThr14 AlphaLISA in FUOV1 cells
Details: read-out: FUOV-1 CDK1 pThr14 IC50
Summary of the method: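 IC50 was derived from AlphaLISA signal (excitation 680 nm, emission 615 nm) for phospho-Thr14 CDK1 in lysates. The detection antibodies were rabbit anti-pThr14 and mouse anti-total CDK1, each at 5 nM. FUOV1 ovarian cells were exposed to compound for 2 hours before lysis.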

Structure (SMILES)	IC50 (2 h, 2 h compound incubation) [nM]	IC50 (2 h, 2 hours with compound) [nM]	other results
Cc1ccc2[nH]ncc2c1-c1nc(-c2ccc(C#N)nc2Nc2ncccn2)nc(C(N)=O)c1N [Compound 745]	140		
COc1ccc(-c2nc(C(N)=O)c(N)c(-c3c(C)ccc4[nH]ncc34)n2)c(Nc2ncccn2)c1 [Compound 636]	97		
Cc1cccnc1Nc1ncc(F)cc1-c1nc(C(N)=O)c(N)c(-c2c(C)ccc3[nH]ncc23)n1 [Compound 672]	33		
Cc1ccc2[nH]ncc2c1-c1nc(-c2cc(F)cnc2NC2COC2)nc(C(N)=O)c1N [Compound 712]	66		
Cc1ccc2[nH]ncc2c1-c1nc(-c2cccnc2NC[C@@H]2CCCO2)nc(C(N)=O)c1N [Compound 670]	198		
Cc1ccc(Cl)c(Nc2ncccc2-c2nc(C(N)=O)c(N)c(-c3c(C)ccc4[nH]ncc34)n2)n1 [Compound 716]	13		
Cc1ccc2[nH]ncc2c1-c1nc(-c2cc(F)ccc2Nc2ncc(Cl)s2)nc(C(N)=O)c1N [Compound 510]	871		
Cc1ccc(O)c(C)c1-c1nc(-c2ccnnc2)cc(C(N)=O)c1N [Compound 77]			IC50 (2 h incubation): 179 nM
Cc1ccc2[nH]ncc2c1-c1cc2c(oc3ccc(OCc4cccnc4)nc32)c(C(N)=O)c1N [Compound 569, 7-amino-8-(5-methyl-1H-indazol-4-yl)-2-(pyridin-3-ylmethoxy)benzofuro[3,2-b]pyridine-6-carboxamide]	712		
Cc1ccc2[nH]ncc2c1-c1nc(-c2cccnc2NC[C@H]2CCOC2)nc(C(N)=O)c1N [Compound 594]	36		
Cc1ccc(Cl)nc1Nc1ncccc1-c1nc(C(N)=O)c(N)c(-c2c(C)ccc3[nH]ncc23)n1 [Compound 742]	5		
Cc1ccc2[nH]ncc2c1-c1nc(-c2ccc(F)cc2Nc2nccnc2C#N)nc(C(N)=O)c1N [Compound 701]	25		
Cc1ccc2[nH]ncc2c1-c1nc(-c2cc(F)ccc2NC(=O)C2(C)CCOCC2)nc(C(N)=O)c1N [Compound 505]	36		
Cc1ccc(F)c(Nc2ncccc2-c2nc(C(N)=O)c(N)c(-c3c(C)ccc4[nH]ncc34)n2)n1 [Compound 697]	2		
Cc1ccc2[nH]ncc2c1-c1nc(-c2cccnc2Nc2ccc(F)nc2F)nc(C(N)=O)c1N [Compound 641]	392		
Cc1ccnnc1Nc1cc(F)ccc1-c1nc(C(N)=O)c(N)c(-c2c(C)ccc3[nH]ncc23)n1 [Compound 540]	9		
Cc1ccc2[nH]ncc2c1-c1nc(-c2cccnc2Nc2cccc(Cl)c2)nc(C(N)=O)c1N [Compound 638]	707		
Cc1ccc2[nH]ncc2c1-c1nc(-c2cc(F)cnc2N[C@@H]2C[C@H]3CC[C@@H]2O3)nc(C(N)=O)c1N [Compound 836]			IC50 (2 hours with compound): 15 nM
COc1cncc(Nc2cc(F)ccc2-c2nc(C(N)=O)c(N)c(-c3c(C)ccc4[nH]ncc34)n2)n1 [Compound 696]	69		
Cc1ccc2[nH]ncc2c1-c1nc(-c2ccc(F)cc2Nc2cncnc2)nc(C(N)=O)c1N [Compound 541, 5-amino-2-(4-fluoro-2-(pyrimidin-5-ylamino)phenyl)-6-(5-methyl-1H-indazol-4-yl)pyrimidine-4-carboxamide]	47		
NC(=O)c1nc(-c2cc(F)ccc2Nc2ncc(F)cn2)nc(-c2c(Cl)ccc3[nH]ncc23)c1N [Compound 554]	138		
Cc1cccnc1Nc1nc(Cl)ccc1-c1nc(C(N)=O)c(N)c(-c2c(C)ccc3[nH]ncc23)n1 [Compound 736, 5-amino-2-(6-chloro-2-((3-methylpyridin-2-yl)amino)pyridin-3-yl)-6-(5-methyl-1H-indazol-4-yl)pyrimidine-4-carboxamide]	6		
Cc1ccc2[nH]ncc2c1-c1nc(-c2ccc(F)cc2Nc2ncccn2)nc(C(N)=O)c1N [Compound 511]	25		
Cc1ccc2[nH]ncc2c1-c1nc(-c2ccc(F)cc2Nc2cncnc2C(=N)N)nc(C(N)=O)c1N [Compound 694]	423		
Cc1ccc2[nH]ncc2c1-c1cc2c(oc3ccc(OCC(C)(C)C#N)nc32)c(C(N)=O)c1N [Compound 559]	1290		
Cc1ccc2[nH]ncc2c1-c1nc(-c2cc(F)c(F)cc2NC(=O)C(C)(C)C)nc(C(N)=O)c1N [Compound 487]	68		

Now from value to compound, other results behind:

IC50 (2 h, 2 h compound incubation) [nM]	IC50 (2 h, 2 hours with compound) [nM]	Structure (SMILES)	other results
	37	Cc1ccc2[nH]ncc2c1-c1nc(-c2ccnnc2Nc2ncccc2F)nc(C(N)=O)c1N [Compound 886, 5-amino-2-(3-((3-fluoropyridin-2-yl)amino)pyridazin-4-yl)-6-(5-methyl-1H-indazol-4-yl)pyrimidine-4-carboxamide]	
	212	NC(=O)c1nc(-c2cccnc2NC2CC2)nc(-c2c(Cl)cc(F)c3[nH]ncc23)c1N [Compound 967]	
113		Cc1ccc2[nH]ncc2c1-c1nc(-c2ccc(Cl)nc2N[C@H]2C[C@@](C)(O)C2)nc(C(N)=O)c1N [Compound 772]	
	876	Cc1ccc2[nH]ncc2c1-c1nc(-c2cc(F)cnc2NCc2cnn(C)c2)nc(C(N)=O)c1N [Compound 895]	
61		Cc1ccc2[nH]ncc2c1-c1nc(-c2ccc(F)nc2N[C@H]2C[C@@](C)(O)C2)nc(C(N)=O)c1N [Compound 791]	
	49	Cc1ccc2[nH]ncc2c1-c1nc(-c2ccccc2NC2CC(O)(C(F)(F)F)C2)nc(C(N)=O)c1N (stereo not shown) [Compound 882]	
17		Cc1cccnc1Nc1cc(C#N)ccc1-c1nc(C(N)=O)c(N)c(-c2c(C)ccc3[nH]ncc23)n1 [Compound 754]	
	214	Cc1cc(F)c2[nH]ncc2c1-c1nc(-c2ccc(C(F)F)nc2Nc2ncccn2)nc(C(N)=O)c1N [Compound 907]	
	> 10000	COc1c(C(N)=O)nc(-c2cccnc2Nc2nc(F)ccc2F)nc1-c1c(C)ccc2[nH]ncc12 [Compound 963, 2-(2-((3,6-difluoropyridin-2-yl)amino)pyridin-3-yl)-5-methoxy-6-(5-methyl-1H-indazol-4-yl)pyrimidine-4-carboxamide]	
	232	Cc1ccc2[nH]ncc2c1-c1nc(-c2ccc(F)cc2N[C@H]2C[C@@H](O)C2)nc(C(N)=O)c1N [Compound 860]	
	56	Cc1ccc2[nH]ncc2c1-c1nc(-c2cc(F)cnc2N[C@H](C)C(F)(F)F)nc(C(N)=O)c1N [Compound 889]	
	44	Cc1ccc2[nH]ncc2c1-c1nc(-c2cc(F)cnc2N[C@@H]2CC[C@@H](O)C2)nc(C(N)=O)c1N [Compound 851]	
199		Cc1ccc2[nH]ncc2c1-c1nc(-c2cc(F)cnc2N[C@H]2CC[C@H](C(C)(C)O)CC2)nc(C(N)=O)c1N [Compound 757]	
	22	Cc1ccc(Cl)nc1Nc1nc(F)ccc1-c1nc(C(N)=O)c(N)c(-c2c(C)ccc3[nH]ncc23)n1 [Compound 943]	
	153	Cc1ccc(-c2nc(C(N)=O)c(N)c(-c3c(F)ccc4[nH]ncc34)n2)c(Nc2ncccn2)n1 [Compound 953]	
	12	Cc1ccc(F)c(Nc2ncccc2-c2cc(C(N)=O)c(N)c(-c3c(C)ccc4[nH]ncc34)n2)n1 [Compound 827, 5-amino-2′-((3-fluoro-6-methylpyridin-2-yl)amino)-6-(5-methyl-1H-indazol-4-yl)-[2,3′-bipyridine]-4-carboxamide]	
	54	Cc1ccc2[nH]ncc2c1-c1nc(-c2cccnc2NC2CC2)nc(C(N)=O)c1N [Compound 914, 5-amino-2-(2-(cyclopropylamino)pyridin-3-yl)-6-(5-methyl-1H-indazol-4-yl)pyrimidine-4-carboxamide]	
